Reference: the supplement of paper PMC10307832

Columns and labels:
Assay in all cases: relative viability (nuclei count vs DMSO), 5 days (fraction); higher = more cells survive
[1] = tested on: RERF-LC-KJ
In short: (§1)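 The day after seeding in 1536-well plates, lung cancer cell lines were treated by pin tool with a single drug, or with a fixed anchor-drug dose together with five library-drug doses (not always all listed) in √10 steps. After 5 days, a combined fix-and-stain solution (final 0.05% Triton X-100, 1% formaldehyde, 1 ug/ml Hoechst) was added. Nuclei counted on 4× images gave relative viability as treated counts over vehicle counts, reported as the median of duplicate plates.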

[2] = tested on: COR-L 105
In short: as §1

[3] = tested on: ChaGo-K-1
In short: as §1

[4] = tested on: A-427
In short: as §1

[5] = tested on: NCI-H1650
In short: as §1

[6] = tested on: NCI-H2405
In short: as §1

[7] = tested on: NCI-H358
In short: as §1

[8] = tested on: EMC-BAC-2
In short: as §1

[9] = tested on: NCI-H596
In short: as §1

[10] = tested on: SW 900
In short: as §1

[11] = tested on: HARA
In short: as §1

[12] = tested on: EKVX
In short: as §1

[13] = tested on: NCI-H460
In short: as §1

[14] = tested on: NCI-H1755
In short: as §1

[15] = tested on: NCI-H1734
In short: as §1

[16] = tested on: LK-2
In short: as §1

[17] = tested on: NCI-H1993
In short: as §1

[18] = tested on: LU99A
In short: as §1

[19] = tested on: EPLC-272H
In short: as §1

[20] = tested on: NCI-H647
In short: as §1

## Cc1cn(-c2cc(NC(=O)c3ccc(C)c(Nc4nccc(-c5cccnc5)n4)c3)cc(C(F)(F)F)c2)cn1 [Nilotinib] + COc1cc2c(Oc3ccc(NC(=O)C4(C(=O)Nc5ccc(F)cc5)CC4)cc3F)ccnc2cc1OCCCN1CCOCC1 [Foretinib] (partner 0.25 µM)
[1]; first compound 0.001 µM
  relative viability: 0.967
[1]; first compound 0.003162 µM
  relative viability: 1.08
[1]; first compound 0.01 µM
  relative viability: 0.924
[1]; first compound 0.03162 µM
  relative viability: 0.81
[1]; first compound 0.1 µM
  relative viability: 0.912
[2]; first compound 0.001 µM
  relative viability: 1.08
[2]; first compound 0.01 µM
  relative viability: 1.45
[2]; first compound 0.03162 µM
  relative viability: 0.99
[2]; first compound 0.1 µM
  relative viability: 0.99
[3]; first compound 0.001 µM
  relative viability: 0.799
[3]; first compound 0.003162 µM
  relative viability: 1.09
[3]; first compound 0.01 µM
  relative viability: 1.03
[3]; first compound 0.03162 µM
  relative viability: 0.582
[3]; first compound 0.1 µM
  relative viability: 0.756
[4]; first compound 0.001 µM
  relative viability: 0.945
[4]; first compound 0.003162 µM
  relative viability: 1.09
[4]; first compound 0.01 µM
  relative viability: 1.03
[4]; first compound 0.03162 µM
  relative viability: 0.792
[4]; first compound 0.1 µM
  relative viability: 0.476
[5]; first compound 0.001 µM
  relative viability: 1.09
[5]; first compound 0.003162 µM
  relative viability: 1.2
[5]; first compound 0.01 µM
  relative viability: 1.3
[5]; first compound 0.03162 µM
  relative viability: 1.09
[5]; first compound 0.1 µM
  relative viability: 1.3
[6]; first compound 0.001 µM
  relative viability: 1.05
[6]; first compound 0.003162 µM
  relative viability: 1.05
[6]; first compound 0.01 µM
  relative viability: 1.03
[6]; first compound 0.03162 µM
  relative viability: 0.956
[6]; first compound 0.1 µM
  relative viability: 0.98
[7]; first compound 0.001 µM
  relative viability: 0.655
[7]; first compound 0.003162 µM
  relative viability: 0.8
[7]; first compound 0.01 µM
  relative viability: 0.818
[7]; first compound 0.03162 µM
  relative viability: 0.446
[7]; first compound 0.1 µM
  relative viability: 0.346
[8]; first compound 0.001 µM
  relative viability: 0.963
[8]; first compound 0.003162 µM
  relative viability: 1.14
[8]; first compound 0.01 µM
  relative viability: 1.13
[8]; first compound 0.03162 µM
  relative viability: 0.922
[8]; first compound 0.1 µM
  relative viability: 1.02
[9]; first compound 0.001 µM
  relative viability: 0.732
[9]; first compound 0.003162 µM
  relative viability: 0.622
[9]; first compound 0.01 µM
  relative viability: 0.729
[9]; first compound 0.03162 µM
  relative viability: 0.937
[9]; first compound 0.1 µM
  relative viability: 0.601
[10]; first compound 0.001 µM
  relative viability: 0.664
[10]; first compound 0.003162 µM
  relative viability: 0.814
[10]; first compound 0.01 µM
  relative viability: 1.09
[10]; first compound 0.03162 µM
  relative viability: 0.639
[10]; first compound 0.1 µM
  relative viability: 0.902
[11]; first compound 0.001 µM
  relative viability: 0.922
[11]; first compound 0.003162 µM
  relative viability: 0.646
[11]; first compound 0.01 µM
  relative viability: 0.817
[11]; first compound 0.03162 µM
  relative viability: 0.811
[11]; first compound 0.1 µM
  relative viability: 0.943
[12]; first compound 0.001 µM
  relative viability: 0.726
[12]; first compound 0.003162 µM
  relative viability: 1
[12]; first compound 0.01 µM
  relative viability: 1.43
[12]; first compound 0.03162 µM
  relative viability: 0.512
[12]; first compound 0.1 µM
  relative viability: 0.187
[13]; first compound 0.001 µM
  relative viability: 0.903
[13]; first compound 0.003162 µM
  relative viability: 1.31
[13]; first compound 0.01 µM
  relative viability: 1.17
[13]; first compound 0.03162 µM
  relative viability: 0.66
[13]; first compound 0.1 µM
  relative viability: 0.941
[14]; first compound 0.001 µM
  relative viability: 0.892
[14]; first compound 0.003162 µM
  relative viability: 0.968
[14]; first compound 0.01 µM
  relative viability: 0.974
[14]; first compound 0.03162 µM
  relative viability: 0.983
[14]; first compound 0.1 µM
  relative viability: 0.843
[15]; first compound 0.001 µM
  relative viability: 0.771
[15]; first compound 0.01 µM
  relative viability: 0.895
[15]; first compound 0.03162 µM
  relative viability: 0.646
[15]; first compound 0.1 µM
  relative viability: 0.628
[16]; first compound 0.001 µM
  relative viability: 1.02
[16]; first compound 0.003162 µM
  relative viability: 1.53
[16]; first compound 0.01 µM
  relative viability: 1.1
[16]; first compound 0.03162 µM
  relative viability: 0.905
[16]; first compound 0.1 µM
  relative viability: 0.711
[17]; first compound 0.001 µM
  relative viability: 0.823
[17]; first compound 0.003162 µM
  relative viability: 0.871
[17]; first compound 0.01 µM
  relative viability: 0.989
[17]; first compound 0.03162 µM
  relative viability: 0.742
[17]; first compound 0.1 µM
  relative viability: 0.839
[18]; first compound 0.001 µM
  relative viability: 0.784
[18]; first compound 0.003162 µM
  relative viability: 0.848
[18]; first compound 0.01 µM
  relative viability: 0.889
[18]; first compound 0.03162 µM
  relative viability: 0.823
[18]; first compound 0.1 µM
  relative viability: 0.509
[19]; first compound 0.001 µM
  relative viability: 0.48
[19]; first compound 0.003162 µM
  relative viability: 0.658
[19]; first compound 0.01 µM
  relative viability: 0.688
[19]; first compound 0.03162 µM
  relative viability: 0.435
[19]; first compound 0.1 µM
  relative viability: 0.195
[20]; first compound 0.001 µM
  relative viability: 1.09
[20]; first compound 0.003162 µM
  relative viability: 1.16
[20]; first compound 0.01 µM
  relative viability: 1.34
[20]; first compound 0.03162 µM
  relative viability: 0.879
[20]; first compound 0.1 µM
  relative viability: 0.86
